Assays:
Assay type in all cases: cell-based
liver organoid [1] = assay: GSH and ROS distribution by monochlorobimane (mBCL) and dihydroethidium (DHE) assay in liver organoid; details: liver organoid of the THE-F group, APAP 2 to 50 mM
liver organoid [2] = assay: Toxicity test of liver organoid under drug concentration gradient (syringe pump and mixing channel); details: cultured 48 hours under gradient formed from 50 mM APAP medium and medium containing no APAP
CYP7A1 = CYP7A1 gene expression in liver organoid cultured alone or co-cultured with intestine organoid, bile acid in culture medium; details: compared with DMSO control
Procedure: (§1) Co-culture of the induced liver organoid and the adult stem cell-derived intestine organoid was performed, and the interaction between the two organoids was analyzed.

albumin gene = assay: Albumin gene expression in liver organoid cultured alone or co-cultured with intestine organoid, bile acid in culture medium; details: all conditions (liver organoid alone or co-cultured with intestine organoid); compared with DMSO control
Procedure: as §1

| SMILES | intracellular toxicity and damage of the liver organoid (liver organoid [1]) | fluorescence of DHE (reactive oxygen species formation) (liver organoid [1]; at higher concentrations) | fluorescence of mBCL (intracellular glutathione, GSH) (liver organoid [1]; at higher concentrations) | cytotoxicity in the liver organoid (liver organoid [2]) | expression level of CYP7A1 (CYP7A1; liver organoid co-cultured with intestine organoid) | expression level of CYP7A1 (CYP7A1; liver organoid cultured alone) | albumin gene expression (albumin gene) |
| --- | --- | --- | --- | --- | --- | --- | --- |
| CC(=O)Nc1ccc(O)cc1 [APAP, acetaminophen] | increased with an increasing concentration | higher | lower | increased as the drug concentration increased | – | – | – |
| C[C@H](CCC(=O)O)[C@H]1CC[C@H]2[C@@H]3[C@H](O)C[C@@H]4C[C@H](O)CC[C@]4(C)[C@H]3CC[C@]12C [CDCA, chenodeoxycholic acid] | – | – | – | – | a decrease | no difference | no difference in all conditions |

From patent publication US11725173B2, “Highly efficient organoid culture device and system” (CELLARTGEN INC., priority 2018, dated 2023)
